One test has as its target Glutamate NMDA receptor. The test is described as follows: Antagonist activity at NMDA receptor in Wistar rat cerebellar granule neurons assessed as inhibition of NMDA-induced intracellular calcium by Fura-2 fluorescence assay. Format: cell-based.
Test [1] concerns the target Glutamate NMDA receptor (Rattus norvegicus) (UniProt P35439+Q00959+Q00960+Q00961+Q62645+Q8VHN2+Q9R1M7). The test is described as follows: Ratio of amantadine IC50 to compound IC50 for NMDA receptor in Wistar rat cerebellar granule neurons assessed as inhibition of NMDA-induced intracellular calcium by Fura-2 fluorescence assay. Format: cell-based. On the technique in general: A change in cytosolic calcium serves as a functional read-out for many receptors and channels.

For orientation: IC50 means the concentration that inhibits the measured activity by half. As to `Cc1ccc(S(=O)(=O)n2cc(C[C@@H]3CO[C@H]4CCCC(=O)N34)c3ccccc32)cc1`, the IC50 at Glutamate NMDA receptor was over 450 µM. `COC(=O)C[C@H]1CC(=O)N2[C@@H](Cc3c[nH]c4ccccc34)CO[C@@H]2C1`: the IC50 at Glutamate NMDA receptor was over 450 µM.

With `O=C1CC[C@@H]2OC[C@@H](Cc3c[nH]c4ccccc34)N12`, the IC50 at Glutamate NMDA receptor amounted to 341 µM. Turning to `COC(=O)C[C@@H]1CC(=O)N2[C@@H](Cc3c[nH]c4ccccc34)CO[C@@H]2C1`, at Glutamate NMDA receptor, the IC50 is over 450 µM.

As for `CC[C@@H]1CCC(=O)N2[C@@H](Cc3c[nH]c4ccccc34)CO[C@@H]12`, on Glutamate NMDA receptor, the IC50 is over 450 µM. For `O=C1CCC[C@@H]2OC[C@@H](Cc3c[nH]c4ccccc34)N12`, the IC50 on Glutamate NMDA receptor was found to be 63.4 µM. The Ratio IC50 in test [1] came out at 1.5. `CC[C@H]1CCC(=O)N2[C@@H](Cc3c[nH]c4ccccc34)CO[C@H]12`: on Glutamate NMDA receptor, the IC50 was over 450 µM. In the case of `COC(=O)C[C@@H]1CC(=O)N2[C@H](Cc3c[nH]c4ccccc34)CO[C@@H]2C1`, the IC50 at Glutamate NMDA receptor was over 450 µM.

With `COC(=O)C[C@H]1CC(=O)N2[C@H](Cc3c[nH]c4ccccc34)CO[C@H]2C1`, on Glutamate NMDA receptor, the IC50 was over 450 µM. Take `O=C1CCC[C@@H]2OC[C@H](Cc3c[nH]c4ccccc34)N12`: on Glutamate NMDA receptor, the 50% inhibitory concentration (IC50) was determined as 305 µM. Turning to `Cn1cc(C[C@@H]2CO[C@H]3CCCC(=O)N23)c2ccccc21`, the IC50 on Glutamate NMDA receptor is over 450 µM.

Turning to `O=C1CCC[C@H]2OC[C@H](Cc3c[nH]c4ccccc34)N12`, the IC50 at Glutamate NMDA receptor was 429 µM. Regarding `O=C1CCC[C@H]2OC[C@@H](Cc3c[nH]c4ccccc34)N12`, the IC50 on Glutamate NMDA receptor was over 450 µM.

Take `CC[C@@H]1CCC(=O)N2[C@H](Cc3c[nH]c4ccccc34)CO[C@@H]12`: the IC50 at Glutamate NMDA receptor was over 450 µM.

Consider `CC[C@H]1CCC(=O)N2[C@H](Cc3c[nH]c4ccccc34)CO[C@H]12`, for which the IC50 at Glutamate NMDA receptor was over 450 µM.

(Values after ChEMBL document CHEMBL3351644, “Tryptophanol-derived oxazolopiperidone lactams: identification of a hit compound as NMDA receptor antagonist” (Bioorg Med Chem Lett, 2014).)
